Blank lines part the entries; values can stand above or below the compound they belong to.
What was measured:
Assay in all cases: radiometric filter-binding kinase assay, Kinase HotSpot
Settings in all cases: compound 0.5 µM; ATP 10 µM
FER (human) = FER (human) (UniProt P16591)
SRMS (human) = SRMS (human) (UniProt Q9H3Y6)
AURKB (human) = AURKB (human) (UniProt Q96GD4)
AXL (human) = AXL (human) (UniProt P30530)
PDPK1 (human) = PDPK1 (human) (UniProt O15530)
EPHA4 (human) = EPHA4 (human) (UniProt P54764)
JAK3 JH1 JH2 (human) = JAK3 JH1 JH2 (human) (UniProt P52333)
MAP3K10 (human) = MAP3K10 (human) (UniProt Q02779)
MARK1 (human) = MARK1 (human) (UniProt Q9P0L2)
STK24 (human) = STK24 (human) (UniProt Q9Y6E0)
MAPK8 (human) = MAPK8 (human) (UniProt P45983)
PAK4 (human) = PAK4 (human) (UniProt O96013)
[1] = biological target: JAK1 JH1 catalytic (human) (UniProt P23458)
CDK1 CCNA2 (human) = CDK1 CCNA2 (human) (UniProt P06493+P20248)
PIM2 (human) = PIM2 (human) (UniProt Q9P1W9)
CSNK1G3 (human) = CSNK1G3 (human) (UniProt Q9Y6M4)
NEK7 (human) = NEK7 (human) (UniProt Q8TDX7)
PHKG2 (human) = PHKG2 (human) (UniProt P15735)
PRKCB1 (human) = PRKCB1 (human) (UniProt P05771)
MAPKAPK5 (human) = MAPKAPK5 (human) (UniProt Q8IW41)
RIPK2 (human) = RIPK2 (human) (UniProt O43353)
IRAK1 (human) = IRAK1 (human) (UniProt P51617)
OXSR1 (human) = OXSR1 (human) (UniProt O95747)
CDK9 CCNT1 (human) = CDK9 CCNT1 (human) (UniProt P50750+O60563)
MAPK13 (human) = MAPK13 (human) (UniProt O15264)
DYRK3 (human) = DYRK3 (human) (UniProt O43781)
PLK2 (human) = PLK2 (human) (UniProt Q9NYY3)
STK11 (human) = STK11 (human) (UniProt Q15831)
PRKCZ (human) = PRKCZ (human) (UniProt Q05513)
EPHB1 (human) = EPHB1 (human) (UniProt P54762)
PAK1 (human) = PAK1 (human) (UniProt Q13153)
AKT2 (human) = AKT2 (human) (UniProt P31751)
PLK1 (human) = PLK1 (human) (UniProt P53350)
MINK1 (human) = MINK1 (human) (UniProt Q8N4C8)
HIPK3 (human) = HIPK3 (human) (UniProt Q9H422)
PDGFRA (human) = PDGFRA (human) (UniProt P16234)
HIPK1 (human) = HIPK1 (human) (UniProt Q86Z02)
CAMK4 (human) = CAMK4 (human) (UniProt Q16566)
RET (human) = RET (human) (UniProt P07949)
CSNK1A1 (human) = CSNK1A1 (human) (UniProt P48729)
MST4 (human) = MST4 (human) (UniProt Q9P289)
ERBB2 (human) = ERBB2 (human) (UniProt P04626)

Sequence of RIPK2 (human) (O43353 whole entry, looked up): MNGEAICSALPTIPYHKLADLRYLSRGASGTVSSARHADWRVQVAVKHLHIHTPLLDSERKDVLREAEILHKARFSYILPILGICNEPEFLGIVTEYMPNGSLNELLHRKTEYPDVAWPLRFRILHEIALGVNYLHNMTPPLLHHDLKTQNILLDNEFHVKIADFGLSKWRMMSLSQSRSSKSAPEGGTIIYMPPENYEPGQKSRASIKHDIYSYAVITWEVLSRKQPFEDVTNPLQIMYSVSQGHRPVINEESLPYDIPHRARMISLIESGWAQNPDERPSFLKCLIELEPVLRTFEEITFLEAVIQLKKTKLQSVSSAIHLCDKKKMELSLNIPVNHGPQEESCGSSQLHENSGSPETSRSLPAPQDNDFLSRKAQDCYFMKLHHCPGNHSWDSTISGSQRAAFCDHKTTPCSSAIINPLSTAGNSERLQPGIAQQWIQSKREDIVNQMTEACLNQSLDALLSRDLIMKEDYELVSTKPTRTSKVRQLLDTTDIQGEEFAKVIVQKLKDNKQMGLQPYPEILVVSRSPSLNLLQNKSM
Sequence of FER (human) (P16591 whole entry, looked up): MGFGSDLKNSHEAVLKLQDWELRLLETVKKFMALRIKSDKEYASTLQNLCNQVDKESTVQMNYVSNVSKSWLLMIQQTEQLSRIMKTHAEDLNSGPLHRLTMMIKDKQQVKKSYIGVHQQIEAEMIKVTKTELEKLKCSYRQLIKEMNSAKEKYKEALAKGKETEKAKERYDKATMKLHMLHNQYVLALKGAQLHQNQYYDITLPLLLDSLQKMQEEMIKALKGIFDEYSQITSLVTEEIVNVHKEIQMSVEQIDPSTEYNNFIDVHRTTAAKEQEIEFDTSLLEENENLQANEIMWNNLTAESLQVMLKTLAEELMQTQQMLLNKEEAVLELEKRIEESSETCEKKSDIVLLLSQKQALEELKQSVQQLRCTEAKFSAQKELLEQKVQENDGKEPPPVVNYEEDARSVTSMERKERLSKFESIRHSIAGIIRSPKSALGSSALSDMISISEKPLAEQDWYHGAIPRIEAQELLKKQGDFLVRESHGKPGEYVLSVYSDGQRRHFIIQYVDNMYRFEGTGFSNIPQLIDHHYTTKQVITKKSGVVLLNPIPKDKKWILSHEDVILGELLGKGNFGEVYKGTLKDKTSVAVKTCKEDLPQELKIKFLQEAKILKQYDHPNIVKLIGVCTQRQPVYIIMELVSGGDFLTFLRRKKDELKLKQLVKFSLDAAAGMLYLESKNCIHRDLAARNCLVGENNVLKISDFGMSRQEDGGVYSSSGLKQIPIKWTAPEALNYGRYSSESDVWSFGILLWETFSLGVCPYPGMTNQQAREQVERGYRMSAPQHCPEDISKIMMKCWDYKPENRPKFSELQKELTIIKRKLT
Sequence of EPHA4 (human) (P54764 whole entry, looked up): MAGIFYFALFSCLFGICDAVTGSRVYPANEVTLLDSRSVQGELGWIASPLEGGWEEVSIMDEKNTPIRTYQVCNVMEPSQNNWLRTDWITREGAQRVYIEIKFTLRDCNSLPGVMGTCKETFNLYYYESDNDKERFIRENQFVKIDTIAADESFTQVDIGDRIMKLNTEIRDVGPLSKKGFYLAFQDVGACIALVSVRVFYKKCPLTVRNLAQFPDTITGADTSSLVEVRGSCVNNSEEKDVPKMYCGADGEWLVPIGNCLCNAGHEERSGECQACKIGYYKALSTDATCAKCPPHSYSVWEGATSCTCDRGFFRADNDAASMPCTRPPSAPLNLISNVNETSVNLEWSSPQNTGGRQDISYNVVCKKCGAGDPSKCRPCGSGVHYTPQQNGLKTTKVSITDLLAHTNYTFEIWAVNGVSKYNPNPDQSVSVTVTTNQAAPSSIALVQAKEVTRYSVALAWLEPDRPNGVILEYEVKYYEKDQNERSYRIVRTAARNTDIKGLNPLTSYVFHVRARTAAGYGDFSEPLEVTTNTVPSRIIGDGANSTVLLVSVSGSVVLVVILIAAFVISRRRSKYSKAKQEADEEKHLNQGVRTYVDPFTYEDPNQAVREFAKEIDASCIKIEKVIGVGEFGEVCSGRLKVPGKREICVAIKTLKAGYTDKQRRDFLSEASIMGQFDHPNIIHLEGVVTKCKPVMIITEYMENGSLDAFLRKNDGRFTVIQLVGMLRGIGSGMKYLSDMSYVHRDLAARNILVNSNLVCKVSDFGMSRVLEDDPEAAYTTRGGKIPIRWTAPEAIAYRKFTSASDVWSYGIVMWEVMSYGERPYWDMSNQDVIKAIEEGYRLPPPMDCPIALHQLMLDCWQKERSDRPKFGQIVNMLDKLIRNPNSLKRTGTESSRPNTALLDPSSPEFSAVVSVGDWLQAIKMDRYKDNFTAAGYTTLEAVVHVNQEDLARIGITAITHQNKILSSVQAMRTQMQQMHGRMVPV
Sequence of PDGFRA (human) (P16234 whole entry, looked up): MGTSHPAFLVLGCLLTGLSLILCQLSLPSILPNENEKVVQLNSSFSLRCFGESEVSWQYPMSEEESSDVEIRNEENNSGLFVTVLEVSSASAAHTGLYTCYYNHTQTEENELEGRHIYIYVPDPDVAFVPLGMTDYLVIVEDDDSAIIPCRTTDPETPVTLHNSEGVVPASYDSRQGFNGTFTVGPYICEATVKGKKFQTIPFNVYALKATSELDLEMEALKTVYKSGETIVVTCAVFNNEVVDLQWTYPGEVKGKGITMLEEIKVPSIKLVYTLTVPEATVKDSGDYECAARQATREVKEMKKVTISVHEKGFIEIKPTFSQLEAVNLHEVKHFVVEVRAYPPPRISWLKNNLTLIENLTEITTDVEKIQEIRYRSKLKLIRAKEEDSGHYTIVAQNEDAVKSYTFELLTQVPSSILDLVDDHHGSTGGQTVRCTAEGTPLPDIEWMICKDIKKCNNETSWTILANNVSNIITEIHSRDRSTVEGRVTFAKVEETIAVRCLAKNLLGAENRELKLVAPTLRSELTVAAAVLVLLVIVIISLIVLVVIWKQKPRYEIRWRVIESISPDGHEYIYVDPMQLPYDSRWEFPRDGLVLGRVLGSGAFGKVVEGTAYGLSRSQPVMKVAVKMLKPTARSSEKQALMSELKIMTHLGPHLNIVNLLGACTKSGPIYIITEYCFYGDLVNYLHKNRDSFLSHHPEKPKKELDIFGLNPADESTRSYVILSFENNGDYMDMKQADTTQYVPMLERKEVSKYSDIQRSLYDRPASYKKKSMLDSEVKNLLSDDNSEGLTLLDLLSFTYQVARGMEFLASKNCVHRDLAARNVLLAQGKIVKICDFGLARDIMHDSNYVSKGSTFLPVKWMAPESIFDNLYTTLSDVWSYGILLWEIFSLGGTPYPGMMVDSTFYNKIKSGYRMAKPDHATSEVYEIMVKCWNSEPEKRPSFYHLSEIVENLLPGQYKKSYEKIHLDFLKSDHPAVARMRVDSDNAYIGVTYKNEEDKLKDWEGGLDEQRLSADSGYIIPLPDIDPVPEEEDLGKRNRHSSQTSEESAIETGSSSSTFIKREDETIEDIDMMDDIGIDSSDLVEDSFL
Sequence of RET (human) (P07949 whole entry, looked up): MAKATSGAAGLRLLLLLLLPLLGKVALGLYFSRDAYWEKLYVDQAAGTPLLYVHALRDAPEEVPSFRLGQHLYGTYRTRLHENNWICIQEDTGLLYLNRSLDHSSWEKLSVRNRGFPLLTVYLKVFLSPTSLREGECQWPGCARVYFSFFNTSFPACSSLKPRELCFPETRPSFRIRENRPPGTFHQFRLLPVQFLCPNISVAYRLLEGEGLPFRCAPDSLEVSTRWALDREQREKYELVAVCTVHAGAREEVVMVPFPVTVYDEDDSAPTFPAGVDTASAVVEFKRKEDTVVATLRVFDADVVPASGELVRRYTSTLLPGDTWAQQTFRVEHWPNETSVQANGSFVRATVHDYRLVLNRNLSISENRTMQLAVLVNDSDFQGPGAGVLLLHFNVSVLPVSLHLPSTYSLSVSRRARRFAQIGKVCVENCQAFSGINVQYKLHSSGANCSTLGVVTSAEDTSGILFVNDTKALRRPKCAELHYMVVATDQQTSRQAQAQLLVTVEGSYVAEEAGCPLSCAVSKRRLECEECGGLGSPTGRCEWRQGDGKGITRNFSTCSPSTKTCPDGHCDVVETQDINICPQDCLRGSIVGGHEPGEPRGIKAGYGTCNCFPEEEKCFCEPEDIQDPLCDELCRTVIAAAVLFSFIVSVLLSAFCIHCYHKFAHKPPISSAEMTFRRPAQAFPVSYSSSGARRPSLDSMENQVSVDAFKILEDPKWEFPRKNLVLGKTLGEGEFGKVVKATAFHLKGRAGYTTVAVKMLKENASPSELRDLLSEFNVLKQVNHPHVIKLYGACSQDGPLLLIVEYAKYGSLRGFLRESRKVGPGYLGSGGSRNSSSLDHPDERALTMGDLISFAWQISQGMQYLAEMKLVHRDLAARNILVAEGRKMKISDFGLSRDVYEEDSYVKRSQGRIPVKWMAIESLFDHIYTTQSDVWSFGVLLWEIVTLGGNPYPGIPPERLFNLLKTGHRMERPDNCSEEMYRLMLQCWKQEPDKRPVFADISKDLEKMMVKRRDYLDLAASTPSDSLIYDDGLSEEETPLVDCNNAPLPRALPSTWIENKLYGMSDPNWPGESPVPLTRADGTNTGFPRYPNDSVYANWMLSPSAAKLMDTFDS
Sequence of OXSR1 (human) (O95747 whole entry, looked up): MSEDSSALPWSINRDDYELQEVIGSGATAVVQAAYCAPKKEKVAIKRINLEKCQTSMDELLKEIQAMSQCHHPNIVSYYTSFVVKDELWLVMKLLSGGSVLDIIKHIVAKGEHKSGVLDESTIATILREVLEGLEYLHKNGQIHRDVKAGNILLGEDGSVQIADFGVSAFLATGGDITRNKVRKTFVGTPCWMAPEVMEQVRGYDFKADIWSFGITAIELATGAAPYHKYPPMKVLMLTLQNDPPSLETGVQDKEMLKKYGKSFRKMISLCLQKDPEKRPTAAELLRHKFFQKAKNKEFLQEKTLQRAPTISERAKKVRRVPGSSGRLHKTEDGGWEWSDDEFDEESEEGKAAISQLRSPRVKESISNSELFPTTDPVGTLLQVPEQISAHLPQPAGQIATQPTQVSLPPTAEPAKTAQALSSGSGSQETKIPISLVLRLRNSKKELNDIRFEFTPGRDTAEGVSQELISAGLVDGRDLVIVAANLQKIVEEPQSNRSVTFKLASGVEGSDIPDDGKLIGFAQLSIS

- residual activity (FER (human)): 86.4%
- residual activity (SRMS (human)): 98%
- residual activity (AURKB (human)): 81%
- residual activity (AXL (human)): 88%
- residual activity (PDPK1 (human)): 88.2%
- residual activity (EPHA4 (human)): 87.6%
- residual activity (JAK3 JH1 JH2 (human)): 107%
- residual activity (MAP3K10 (human)): 92.3%
- residual activity (MARK1 (human)): 76%
- residual activity (STK24 (human)): 70.9%
- residual activity (MAPK8 (human)): 88.9%
- residual activity (PAK4 (human)): 92.7%
- residual activity [1]: 104%
- residual activity (CDK1 CCNA2 (human)): 77.5%
- residual activity (PIM2 (human)): 93.2%
- residual activity (CSNK1G3 (human)): 101%
- residual activity (NEK7 (human)): 91.9%
- residual activity (PHKG2 (human)): 96.6%
- residual activity (PRKCB1 (human)): 105%
- residual activity (MAPKAPK5 (human)): 94.9%
- residual activity (RIPK2 (human)): 108%
- residual activity (IRAK1 (human)): 67.4%
- residual activity (OXSR1 (human)): 112%
- residual activity (CDK9 CCNT1 (human)): 91.5%
- residual activity (MAPK13 (human)): 91.5%
- residual activity (DYRK3 (human)): 91.3%
- residual activity (PLK2 (human)): 100%
- residual activity (STK11 (human)): 73.6%
- residual activity (PRKCZ (human)): 92.2%
- residual activity (EPHB1 (human)): 99.9%
- residual activity (PAK1 (human)): 93.6%
- residual activity (AKT2 (human)): 113%
- residual activity (PLK1 (human)): 105%
- residual activity (MINK1 (human)): 76.1%
- residual activity (HIPK3 (human)): 76.7%
- residual activity (PDGFRA (human)): 82.9%
- residual activity (HIPK1 (human)): 83%
- residual activity (CAMK4 (human)): 86.1%
- residual activity (RET (human)): 6.58%
- residual activity (CSNK1A1 (human)): 68.5%
- residual activity (MST4 (human)): 78.7%
- residual activity (ERBB2 (human)): 114%
Structure (SMILES): CC(=O)O/N=C1\C(=C2\C(=O)Nc3cc(Br)ccc32)Nc2ccccc21

Structure (SMILES): Cn1sc(=O)n(Cc2ccccc2)c1=O
- residual activity (FER (human)): 101%
- residual activity (SRMS (human)): 96.2%
- residual activity (AURKB (human)): 102%
- residual activity (AXL (human)): 96.9%
- residual activity (PDPK1 (human)): 95.5%
- residual activity (EPHA4 (human)): 110%
- residual activity (JAK3 JH1 JH2 (human)): 106%
- residual activity (MAP3K10 (human)): 99.5%
- residual activity (MARK1 (human)): 107%
- residual activity (STK24 (human)): 105%
- residual activity (MAPK8 (human)): 85.5%
- residual activity (PAK4 (human)): 104%
- residual activity [1]: 103%
- residual activity (CDK1 CCNA2 (human)): 104%
- residual activity (PIM2 (human)): 107%
- residual activity (CSNK1G3 (human)): 114%
- residual activity (NEK7 (human)): 101%
- residual activity (PHKG2 (human)): 90.6%
- residual activity (PRKCB1 (human)): 110%
- residual activity (MAPKAPK5 (human)): 94.2%
- residual activity (RIPK2 (human)): 85.4%
- residual activity (IRAK1 (human)): 116%
- residual activity (OXSR1 (human)): 91.1%
- residual activity (CDK9 CCNT1 (human)): 94.2%
- residual activity (MAPK13 (human)): 97.5%
- residual activity (DYRK3 (human)): 108%
- residual activity (PLK2 (human)): 106%
- residual activity (STK11 (human)): 106%
- residual activity (PRKCZ (human)): 101%
- residual activity (EPHB1 (human)): 100%
- residual activity (PAK1 (human)): 94.1%
- residual activity (AKT2 (human)): 99.2%
- residual activity (PLK1 (human)): 97.2%
- residual activity (MINK1 (human)): 88.7%
- residual activity (HIPK3 (human)): 94.9%
- residual activity (PDGFRA (human)): 84.1%
- residual activity (HIPK1 (human)): 92.3%
- residual activity (CAMK4 (human)): 93.2%
- residual activity (RET (human)): 106%
- residual activity (CSNK1A1 (human)): 99.5%
- residual activity (MST4 (human)): 98.1%
- residual activity (ERBB2 (human)): 106%

- residual activity (FER (human)): 67.8%
- residual activity (SRMS (human)): 102%
- residual activity (AURKB (human)): 49.6%
- residual activity (AXL (human)): 82.3%
- residual activity (PDPK1 (human)): 93%
- residual activity (EPHA4 (human)): 89.4%
- residual activity (JAK3 JH1 JH2 (human)): 51.5%
- residual activity (MAP3K10 (human)): 95.2%
- residual activity (MARK1 (human)): 74.8%
- residual activity (STK24 (human)): 62.6%
- residual activity (MAPK8 (human)): 101%
- residual activity (PAK4 (human)): 77.1%
- residual activity [1]: 63.4%
- residual activity (CDK1 CCNA2 (human)): 88.4%
- residual activity (PIM2 (human)): 106%
- residual activity (CSNK1G3 (human)): 81.9%
- residual activity (NEK7 (human)): 106%
- residual activity (PHKG2 (human)): 60.7%
- residual activity (PRKCB1 (human)): 94.7%
- residual activity (MAPKAPK5 (human)): 101%
- residual activity (RIPK2 (human)): 72.3%
- residual activity (IRAK1 (human)): 68.8%
- residual activity (OXSR1 (human)): 91.7%
- residual activity (CDK9 CCNT1 (human)): 75.2%
- residual activity (MAPK13 (human)): 105%
- residual activity (DYRK3 (human)): 106%
- residual activity (PLK2 (human)): 106%
- residual activity (STK11 (human)): 25.6%
- residual activity (PRKCZ (human)): 95.2%
- residual activity (EPHB1 (human)): 86.2%
- residual activity (PAK1 (human)): 86.1%
- residual activity (AKT2 (human)): 92%
- residual activity (PLK1 (human)): 100%
- residual activity (MINK1 (human)): 50.2%
- residual activity (HIPK3 (human)): 89.2%
- residual activity (PDGFRA (human)): 90.9%
- residual activity (HIPK1 (human)): 98.9%
- residual activity (CAMK4 (human)): 97.4%
- residual activity (RET (human)): 8.05%
- residual activity (CSNK1A1 (human)): 48.2%
- residual activity (MST4 (human)): 75.3%
- residual activity (ERBB2 (human)): 97.9%
Structure (SMILES): O=C1Nc2ccccc2/C1=C1\Nc2ccccc2\C1=N/O

Structure (SMILES): Cc1nc2cc3nc(-c4cccs4)cnc3cc2n1C
- residual activity (FER (human)): 104%
- residual activity (SRMS (human)): 95.4%
- residual activity (AURKB (human)): 84.9%
- residual activity (AXL (human)): 109%
- residual activity (PDPK1 (human)): 106%
- residual activity (EPHA4 (human)): 93.1%
- residual activity (JAK3 JH1 JH2 (human)): 107%
- residual activity (MAP3K10 (human)): 101%
- residual activity (MARK1 (human)): 102%
- residual activity (STK24 (human)): 103%
- residual activity (MAPK8 (human)): 93.7%
- residual activity (PAK4 (human)): 126%
- residual activity [1]: 105%
- residual activity (CDK1 CCNA2 (human)): 102%
- residual activity (PIM2 (human)): 114%
- residual activity (CSNK1G3 (human)): 96.1%
- residual activity (NEK7 (human)): 86.5%
- residual activity (PHKG2 (human)): 102%
- residual activity (PRKCB1 (human)): 107%
- residual activity (MAPKAPK5 (human)): 100%
- residual activity (RIPK2 (human)): 89.1%
- residual activity (IRAK1 (human)): 113%
- residual activity (OXSR1 (human)): 99.4%
- residual activity (CDK9 CCNT1 (human)): 88.3%
- residual activity (MAPK13 (human)): 99.7%
- residual activity (DYRK3 (human)): 111%
- residual activity (PLK2 (human)): 99.4%
- residual activity (STK11 (human)): 89.6%
- residual activity (PRKCZ (human)): 95.6%
- residual activity (EPHB1 (human)): 107%
- residual activity (PAK1 (human)): 86.6%
- residual activity (AKT2 (human)): 91.5%
- residual activity (PLK1 (human)): 109%
- residual activity (MINK1 (human)): 98.9%
- residual activity (HIPK3 (human)): 101%
- residual activity (PDGFRA (human)): 23.8%
- residual activity (HIPK1 (human)): 103%
- residual activity (CAMK4 (human)): 94.7%
- residual activity (RET (human)): 68.9%
- residual activity (CSNK1A1 (human)): 96.7%
- residual activity (MST4 (human)): 99.3%
- residual activity (ERBB2 (human)): 92%

Reference: the kinase profiling compilation of Christmann-Franck et al. (2016)
